In patent publication US8846019B2, “Use of protoberberines as an active substance regulating the pilosebaceous unit” (Sederma, priority 2005, dated 2014):
Read-outs that look alike come from different tables or passages of the source. Marks after values point to notes of the source that are not given here.

Tests used:
Assay type in all cases: cell-based
keratinocytes [1] = assay: Toxicity evaluation on keratinocytes, Hoescht (number of cells); conditions: for Hoescht % Change: percent of negative controle
fibroblasts [2] = assay: Toxicity evaluation on fibroblasts, MTT (mitochondrial respiration); conditions: for MTT % Change: percent of negative controle
fibroblasts [3] = assay: Toxicity evaluation on fibroblasts, Hoescht (number of cells); conditions: for Hoescht % Change: percent of negative controle
keratinocytes [4] = assay: Variation of the incorporation of BrdU, keratinocytes with palmatine or berberine; conditions: 48 hours of contact
keratinocytes [5] = assay: Toxicity evaluation on keratinocytes, MTT (mitochondrial respiration); conditions: for MTT % Change: percent of negative controle
[6] = tested on: Normal human keratinocytes (KHN); assay: Antiproliferative effect: BrdU incorporation by human keratinocytes (ELISA); conditions: for % incorporation of BrdU/control: 48 hours, 10% FCS; for effect on proliferation of keratinocytes (in words): dose-dependent mitotic decrease
Protocol: This test is based on the determination of the cellular growth rate. Cells are cultivated in complete medium enriched in FCS (10%) so as to obtain a population in active growth, Mitotic activity is assessed by the incorporation of a nucleotide base analog in DNA during replication: […] replaces thymidine. With a product slowing mitosis, a decrease in BrdU incorporation in cell DNA is to be expected.
Normal human keratinocytes (KHN) cultured with 10% FCS were incubated in the presence or absence of palmatine, or chelidonine at various concentrations for 48 hours.
After the first 24 hours, BrdU was added to the culture medium and the mitosis marker was allowed to act for 24 hours.
After 48 hours, the cells were lysed and the BrdU incorporation rate was determined by an ELISA method.

[7] = keratinocytes, at the tested concentrations
[8] = keratinocytes, concentration 3.10^E−4%
[9] = keratinocytes, concentration 10^E−3%
[10] = fibroblasts, at the tested concentrations
[11] = fibroblasts, concentration 3.10^E−4%
[12] = fibroblasts, concentration 9.10^E−4%

Compound: COc1ccc2cc3[n+](cc2c1OC)CCc1cc2c(cc1-3)OCO2 [BERBERINE, berberine]
- effect on the number of keratinocytes (in words) (keratinocytes [1]): a decrease on the number of keratinocytes
- change of the mitochondrial respiration (in words) (fibroblasts [2]): engenders a change of the mitochondrial respiration
- toxicity on fibroblasts (conclusion in words) (fibroblasts [2]): toxic effect on fibroblasts
- effect on the number of fibroblasts (in words) (fibroblasts [3]): a decrease on the number of fibroblasts
- % Change of the incorporation of BrdU (keratinocytes [4]; concentration 3.10^E−4%): −36%**
- % Change of the incorporation of BrdU (keratinocytes [4]; concentration 10^E−3%): −65%**
- change of the mitochondrial respiration (in words) (keratinocytes [5]): engenders a change of the mitochondrial respiration
- toxicity on keratinocytes (conclusion in words) (keratinocytes [5]): toxic effect

Compound: CN1Cc2c(ccc3c2OCO3)[C@@H]2[C@H]1c1cc3c(cc1C[C@@H]2O)OCO3 [Chelidonine, chelidonine]
- % incorporation of BrdU/control ([6]; concentration 3 × 10E−4%): −41%
- % incorporation of BrdU/control ([6]; concentration 10E−4%): −31%
- % incorporation of BrdU/control ([6]; concentration 10 × 10E−4%): −74%
- effect on proliferation of keratinocytes (in words) [6]: inhibit the proliferation of keratinocytes

Compound: COc1cc2c(cc1OC)-c1cc3ccc(OC)c(OC)c3c[n+]1CC2 [palmatine]
- effect on the number of keratinocytes (in words) (keratinocytes [1]; [7]): does not act on the number of keratinocytes
- Hoescht % Change (keratinocytes [1]; [8]): −1 dns %
- Hoescht % Change (keratinocytes [1]; [9]): −2 dns %
- toxicity on fibroblasts (conclusion in words) (fibroblasts [2]; fibroblasts, MTT and Hoescht): not toxic on fibroblasts
- change of the mitochondrial respiration (in words) (fibroblasts [2]; [10]): does not engender a change of the mitochondrial respiration
- MTT % Change (fibroblasts [2]; [11]): 0 dns %
- MTT % Change (fibroblasts [2]; [12]): −9 dns %
- effect on the number of fibroblasts (in words) (fibroblasts [3]; [10]): does not act on the number of fibroblasts
- Hoescht % Change (fibroblasts [3]; [11]): 1dns %
- Hoescht % Change (fibroblasts [3]; [12]): −1 dns %
- % Change of the incorporation of BrdU (keratinocytes [4]; concentration 3.10^E−4%): −16%**
- % Change of the incorporation of BrdU (keratinocytes [4]; concentration 10^E−3%): −21%**
- change of the mitochondrial respiration (in words) (keratinocytes [5]; [7]): does not engender a change of the mitochondrial respiration
- MTT % Change (keratinocytes [5]; [8]): 7 dns %
- MTT % Change (keratinocytes [5]; [9]): 5 dns %
- toxicity on keratinocytes (conclusion in words) (keratinocytes [5]; keratinocytes, with respect to the different results): not toxic
- % incorporation of BrdU/control ([6]; concentration 3 × 10E−4%): −35%
- % incorporation of BrdU/control ([6]; concentration 10E−4%): −21%
- % incorporation of BrdU/control ([6]; concentration 10 × 10E−4%): −58%
- effect on proliferation of keratinocytes (in words) [6]: inhibit the proliferation of keratinocytes
